Source: patent publication US20040092495A1, “Biguanide derivatives” (priority 2001, published 2004)

Columns and labels:
N5STZ rats = test: Antidiabetic activity in N5STZ rats (oral, change in glycaemia); type: in vivo; conditions: four days of treatment, N5STZ diabetic rats, blood sample two hours after final administration
Method: Study of the Antidiabetic Activity in N5STZ Rats
The oral antidiabetic activity of the compounds of the formula (I) was determined on an experimental model of non-insulin-dependent diabetes induced in the rats using steptozotocin.
The model of non-insulin-dependent diabetes is obtained in the rats by means of an injection of steptozotocin on the 5th day after birth.
The diabetic rats used are eight weeks old. The animals are housed, from the day of birth to the day of the experiment, in an animal house at a regulated temperature of 21 to 22° C. and subjected to a fixed cycle of light (from 7 a.m. to 7 p.m.) and darkness (from 7 p.m. to 7 a.m.). Their food consisted of a maintenance diet, and water and food were given “ad libitum”, with the exception of fasting two hours before the tests, during which period the food is removed (post-absorptive state).
The rats are treated orally with the test product for four (D4) days. Two hours after the final administration of the product and 30 minutes after the animals have been anaesthetised with pentobarbital sodium (Nembutal®), a 300 μl blood sample is taken from the end of the tail.
By way of example, results obtained with compound 1 prepared above are collated compared with metformin in the following table.

[1] = test system: perfused leg of N5STZ rats; test: Sorption of glucose on the perfused leg of N5STZ rats in absence of insulin; type: in vivo; conditions: perfused back leg of N5STZ rats; for sorption of glucose: compound 10 μg/mL, 8 mmol/L glucose, n = 4

## CN(C)C(=N)NC(=N)N1CCCC1.Cl [Compound 1, Dimethylaminoiminomethylpyrrolidinecarboximidamide Hydrochloride]
N5STZ rats; 25 mg/kg
  percentage change in the glycaemia on D4 relative to DO: −6%
N5STZ rats; 50 mg/kg
  percentage change in the glycaemia on D4 relative to DO: −23%
N5STZ rats; 100 mg/kg
  percentage change in the glycaemia on D4 relative to DO: −36%
[1]
  sorption of glucose: 116.08 ± 20.63 (n = 4) μmol/g/l

## CN(C)C(=N)N=C(N)N [Metformin, metformin]
N5STZ rats; 25 mg/kg
  percentage change in the glycaemia on D4 relative to DO: −13%
N5STZ rats; 50 mg/kg
  percentage change in the glycaemia on D4 relative to DO: −22%
N5STZ rats; 100 mg/kg
  percentage change in the glycaemia on D4 relative to DO: −21%
[1]
  induction of sorption of glucose by the muscle in absence of insulin (in words): no effect
  sorption of glucose: 32.09 ± 7.25 (n = 4) μmol/g/l
